Experimental data reported in US8293756B2, “Pharmaceutical compositions comprising nilotinib hydrochloride monohydrate” (Novartis AG, priority 2006, dated 2012).
Where a name gives a salt, the structure may show the parent alone.

Assays:
[1] = Solubility in aqueous media / water; type: physicochemical
Hygroscopic tendency = type: physicochemical

water solubility ([1]; water, background statement) | hygroscopic tendency (Hygroscopic tendency) | solubility in aqueous media ([1]; aqueous media) | SMILES
poorly water soluble |  |  | Cc1cn(-c2cc(NC(=O)c3ccc(C)c(Nc4nccc(-c5cccnc5)n4)c3)cc(C(F)(F)F)c2)cn1 [Nilotinib, 4-Methyl-3-[[4-(3-pyridinyl)-2-pyrimidinyl]amino]-N-[5-(4-methyl-1H-imidazol-1-yl) -3-(trifluoromethyl)phenyl] benzamide]
 | slight hygroscopic tendency | low solubility | Cc1cn(-c2cc(NC(=O)c3ccc(C)c(Nc4nccc(-c5cccnc5)n4)c3)cc(C(F)(F)F)c2)cn1 [nilotinib hydrochloride monohydrate, 4-Methyl-N-[3-(4-methyl-1H-imidazol-1-yl) -5-(trifluromethyl)phenyl]-3-[(4-pyridine-3-ylpyrimidin-2-yl)amino]benzamide hydrochloride hydrate]
